According to the supplement of paper PMC6045584:
± gives the standard deviation of the averaged measurements.

What was measured:
[1] = compound: COc1cc2c(Oc3ccc(NC(=O)C4(C(=O)Nc5ccc(F)cc5)CC4)cc3F)ccnc2cc1OCCCN1CCOCC1 [FORETINIB]; assay: surviving fraction relative to DMSO-only wells; higher = less growth inhibition; conditions: exposure time: 5 days
Outline: (§1)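 A line counted only if its three screens reached replicate Pearson r >0.7 and median Z' >0.3. Tumour cells in log phase were seeded at 250–500 per well in 384-well plates and, after 24 hours, kept in continuous contact with inhibitors at 0.5, 1, 5, 10, 50, 100, 500 and 1000 nM for five days. Surviving fraction was taken from CellTiter-Glo luminescence relative to the median of DMSO-only wells.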

[2] = compound: Cc1nc(Nc2ncc(C(=O)Nc3c(C)cccc3Cl)s2)cc(N2CCN(CCO)CC2)n1 [DASATINIB]; assay: as above; conditions: exposure time: 5 days
Outline: as §1

Row | Test System | surviving fraction ([1]; 0.5 nM) | surviving fraction ([1]; 1 nM) | surviving fraction ([1]; 5 nM) | surviving fraction ([1]; 10 nM) | surviving fraction ([1]; 50 nM) | surviving fraction ([1]; 100 nM) | surviving fraction ([1]; 500 nM) | surviving fraction ([1]; 1000 nM) | surviving fraction ([2]; 0.5 nM) | surviving fraction ([2]; 1 nM) | surviving fraction ([2]; 5 nM) | surviving fraction ([2]; 10 nM) | surviving fraction ([2]; 50 nM) | surviving fraction ([2]; 100 nM) | surviving fraction ([2]; 500 nM) | surviving fraction ([2]; 1000 nM)
1 | HCC1395 BREAST | 1.07 ± 0.09 | 1.08 ± 0.11 | 1.26 ± 0.076 | 1.17 ± 0.048 | 1.09 ± 0.083 | 1.02 ± 0.034 | 0.939 ± 0.063 | 0.796 ± 0.085 | 0.813 ± 0.065 | 0.961 ± 0.1 | 0.891 ± 0.068 | 0.902 ± 0.044 | 0.763 ± 0.093 | 0.704 ± 0.091 | 0.583 ± 0.067 | 0.591 ± 0.017
2 | HCC1806 BREAST | 1.13 ± 0.071 | 0.942 ± 0.035 | 1.21 ± 0.031 | 1.12 ± 0.038 | 1.16 ± 0.11 | 1.12 ± 0.056 | 0.468 ± 0.014 | 0.452 ± 0.033 | 0.682 ± 0.085 | 0.639 ± 0.021 | 0.71 ± 0.059 | 0.639 ± 0.075 | 0.446 ± 0.017 | 0.219 ± 0.038 | 0.167 ± 0.015 | 0.149 ± 0.021
3 | HCC1954 BREAST | 0.975 ± 0.071 | 1.16 ± 0.25 | 1.09 ± 0.08 | 1.14 ± 0.1 | 0.965 ± 0.14 | 0.903 ± 0.05 | 0.6953 ± 0.006 | 0.418 ± 0.068 | 0.362 ± 0.011 | 0.325 ± 0.035 | 0.282 ± 0.0039 | 0.351 ± 0.006 | 0.309 ± 0.022 | 0.173 ± 0.021 | 0.148 ± 0.0028 | 0.104 ± 0.019
4 | HCT15 LARGE INTESTINE | 1.08 ± 0.1 | 1.09 ± 0.084 | 1.06 ± 0.09 | 1.05 ± 0.073 | 1.07 ± 0.091 | 1.11 ± 0.097 | 0.217 ± 0.046 | 0.203 ± 0.042 | 0.827 ± 0.034 | 0.814 ± 0.04 | 0.789 ± 0.06 | 0.73 ± 0.094 | 0.702 ± 0.044 | 0.56 ± 0.034 | 0.363 ± 0.083 | 0.326 ± 0.046
5 | HELA CERVIX | 1.09 ± 0.037 | 1.05 ± 0.091 | 1.1 ± 0.039 | 1.05 ± 0.052 | 1.14 ± 0.11 | 1.15 ± 0.042 | 0.659 ± 0.073 | 0.07233 ± 0.00058 | 0.937 ± 0.085 | 0.934 ± 0.057 | 0.948 ± 0.037 | 0.909 ± 0.029 | 1.02 ± 0.029 | 1.04 ± 0.011 | 1.04 ± 0.061 | 1.06 ± 0.037
6 | HOS BONE | 1.014 ± 0.0075 | 1.01 ± 0.012 | 1.057 ± 0.0045 | 1.01 ± 0.022 | 1.02 ± 0.075 | 1.02 ± 0.036 | 0.55 ± 0.024 | 0.451 ± 0.013 | 0.906 ± 0.018 | 0.908 ± 0.022 | 0.821 ± 0.015 | 0.763 ± 0.048 | 0.693 ± 0.0078 | 0.604 ± 0.015 | 0.382 ± 0.035 | 0.358 ± 0.014
7 | HOSMNG BONE | 0.915 ± 0.11 | 0.904 ± 0.074 | 0.895 ± 0.066 | 0.855 ± 0.036 | 0.55 ± 0.039 | 0.381 ± 0.014 | 0.128 ± 0.0089 | 0.065 ± 0.0044 | 0.979 ± 0.032 | 0.971 ± 0.05 | 0.868 ± 0.021 | 0.741 ± 0.027 | 0.603 ± 0.021 | 0.457 ± 0.016 | 0.36 ± 0.019 | 0.372 ± 0.0076
8 | HSSYII SYNOVIAL | 0.972 ± 0.039 | 0.941 ± 0.031 | 0.956 ± 0.038 | 0.92 ± 0.039 | 0.85 ± 0.028 | 0.771 ± 0.028 | 0.208 ± 0.021 | 0.0695 ± 0.0013 | 0.781 ± 0.031 | 0.791 ± 0.034 | 0.765 ± 0.029 | 0.743 ± 0.022 | 0.634 ± 0.0095 | 0.531 ± 0.047 | 0.489 ± 0.056 | 0.501 ± 0.037
9 | HT1080 SOFT TISSUE | 1.01 ± 0.026 | 1.06 ± 0.037 | 1 ± 0.017 | 1.01 ± 0.033 | 1.04 ± 0.048 | 0.996 ± 0.017 | 0.779 ± 0.025 | 0.3927 ± 0.0032 | 0.975 ± 0.032 | 0.947 ± 0.043 | 0.918 ± 0.02 | 0.841 ± 0.046 | 0.61 ± 0.017 | 0.541 ± 0.017 | 0.428 ± 0.023 | 0.427 ± 0.01
10 | HU09 BONE | 0.923 ± 0.11 | 1.01 ± 0.063 | 1 ± 0.08 | 0.958 ± 0.082 | 0.625 ± 0.1 | 0.496 ± 0.087 | 0.201 ± 0.016 | 0.0877 ± 0.0029 | 0.863 ± 0.056 | 0.845 ± 0.025 | 0.805 ± 0.086 | 0.75 ± 0.056 | 0.392 ± 0.051 | 0.214 ± 0.019 | 0.129 ± 0.007 | 0.12 ± 0.018
